From ChEMBL document CHEMBL1125753, “Absolute structure-cytotoxic activity relationships of steganacin congeners and analogues” (1991)
Values after ≈ are worked out from the molar mass of the structure shown.

What follows are compounds tested on KB (assay: In vitro effective dose to inhibit KB cell growth from a human epidermoid carcinoma.). Details: not given.
Format: functional

Compound	ED50 [µg/mL]
COc1cc(C2c3cc4c(cc3CC3COC(=O)[C@@H]32)OCO4)cc(OC)c1OC (mixture of isomers)	<0.3
COc1cc2c(c(OC)c1OC)-c1cc3c(cc1C[C@H]1COC(=O)[C@H]1C2)OCO3 (racemic) [PICROSTEGANE]	28 (≈ 70.3 µM)
COc1cc2c(c(OC)c1OC)-c1cc3c(cc1C[C@H]1COC(=O)[C@@H]1C2)OCO3 (racemic) [STEGANE]	0.94 (≈ 2.36 µM)
COc1cc2c(c(OC)c1OC)-c1cc3c(cc1CC1COC(=O)C1C2)OCO3 (racemic; form 1)	1.13 (≈ 2.84 µM)
COc1cc2c(c(OC)c1OC)-c1cc3c(cc1CC1COC(=O)C1C2)OCO3 (racemic; form 2)	<0.3
COc1cc2c(c(OC)c1OC)-c1cc3c(cc1CC1COC(=O)C1C2)OCO3 (racemic; form 3)	1.33 (≈ 3.34 µM)
COc1cc(C2c3cc4c(cc3CC3COC(=O)[C@@H]32)OCO4)cc(OC)c1OC (stereo in doubt)	1.75 (≈ 4.39 µM)
COc1cc2c(c(OC)c1OC)-c1cc3c(cc1C[C@@H]1COC(=O)[C@@H]1C2)OCO3 (stereo in doubt; (+))	4.1 (≈ 10.3 µM)
COc1cc2c(c(OC)c1OC)-c1cc3c(cc1C[C@H]1COC(=O)[C@H]1C2)OCO3 (stereo in doubt; (+)) [PICROSTEGANE]	32 (≈ 80.3 µM)
COc1cc2c(c(OC)c1OC)-c1cc3c(cc1C[C@@H]1COC(=O)[C@@H]1C2)OCO3 (stereo in doubt; (-))	<0.3
COc1cc2c(c(OC)c1OC)-c1cc3c(cc1C[C@H]1COC(=O)[C@H]1C2)OCO3 (stereo in doubt; (-)) [PICROSTEGANE]	8.8 (≈ 22.1 µM)
COc1cc2c(c(OC)c1OC)-c1cc3c(cc1[C@@H](OC(C)=O)[C@H]1COC(=O)[C@@H]1C2)OCO3 (stereo in doubt; form 1)	1.75 (≈ 3.83 µM)
COc1cc2c(c(OC)c1OC)-c1cc3c(cc1C[C@H]1COC(=O)[C@@H]1C2)OCO3 (stereo in doubt; form 1) [STEGANE]	86 (≈ 216 µM)
COc1cc2c(c(OC)c1OC)-c1cc3c(cc1[C@@H](OC(C)=O)[C@H]1COC(=O)[C@@H]1C2)OCO3 (stereo in doubt; form 2)	61 (≈ 134 µM)
COc1cc2c(c(OC)c1OC)-c1cc3c(cc1C[C@H]1COC(=O)[C@@H]1C2)OCO3 (stereo in doubt; form 2) [STEGANE]	0.49 (≈ 1.23 µM)
COc1cc2c(c(OC)c1OC)-c1cc3c(cc1[C@@H](OC(C)=O)[C@H]1COC(=O)[C@@H]1C2)OCO3 (stereo in doubt; form 3)	16.6 (≈ 36.4 µM)
COc1cc2c(c(OC)c1OC)-c1cc3c(cc1C[C@H]1COC(=O)[C@@H]1C2)OCO3 (stereo in doubt; form 3) [STEGANE]	94 (≈ 236 µM)
COc1cc2c(c(OC)c1OC)-c1cc3c(cc1C[C@H]1COC(=O)[C@@H]1C2)OCO3 (stereo in doubt; form 4) [STEGANE]	0.47 (≈ 1.18 µM)

Same assay, conditions: Homo sapiens, KB; read-out: ED50 (the source's name)

EC50 [µg/mL]	Compound
16 (≈ 38.6 µM)	COc1cc2c(c(OC)c1OC)-c1cc3c(cc1[C@H](O)[C@H]1COC(=O)[C@H]1C2)OCO3
5 (≈ 12.1 µM)	COc1cc2c(c(OC)c1OC)-c1cc3c(cc1[C@@H](O)[C@H]1COC(=O)[C@@H]1C2)OCO3
> 100	COc1cc2c(c(OC)c1OC)-c1cc3c(cc1[C@H](O[C@@H]1O[C@@H](CO)[C@@H](O)[C@H](O)[C@@H]1O)[C@H]1COC(=O)[C@@H]1C2)OCO3
56 (≈ 75.2 µM)	COc1cc2c(c(OC)c1OC)-c1cc3c(cc1[C@H](O[C@@H]1O[C@@H](COC(C)=O)[C@@H](OC(C)=O)[C@H](OC(C)=O)[C@@H]1OC(C)=O)[C@H]1COC(=O)[C@@H]1C2)OCO3
> 100	COc1cc2c(c(OC)c1OC)-c1cc3c(cc1[C@H](O[C@@H]1O[C@H]4CO[C@@H](c5cccs5)O[C@H]4[C@H](O)[C@@H]1O)[C@H]1COC(=O)[C@@H]1C2)OCO3
3.9 (≈ 6.53 µM)	COc1cc2c(c(OC)c1OC)-c1cc3c(cc1[C@H](OC(=O)c1ccc(Br)cc1)[C@H]1COC(=O)[C@@H]1C2)OCO3
0.53 (≈ 1.28 µM)	COc1cc2c(c(OC)c1OC)-c1cc3c(cc1[C@H](O)[C@H]1COC(=O)[C@@H]1C2)OCO3
1.5 (≈ 3.09 µM)	COc1cc2c(c(OC)c1OC)-c1cc3c(cc1[C@H](OCCN(C)C)[C@H]1COC(=O)[C@@H]1C2)OCO3
6.2 (≈ 15 µM)	COc1cc2c(c(OC)c1OC)-c1cc3c(cc1C(=O)[C@H]1COC(=O)[C@@H]1C2)OCO3
75 (≈ 186 µM)	COc1cc2c(c(OC)c1OC)-c1cc3c(cc1C[C@H](CO)[C@@H](CO)C2)OCO3 (racemic)
15 (≈ 30.8 µM)	COc1cc2c(c(OC)c1OC)-c1cc3c(cc1C[C@H](COC(C)=O)[C@@H](COC(C)=O)C2)OCO3 (racemic)
< 0.3	COc1cc2c(c(OC)c1OC)-c1ccc(OC)c(=O)cc1[C@@H](NC(C)=O)CC2 [COLCHICINE]

Compound	EC50 [µg/mL]
COc1cc2c(c(OC)c1OC)-c1cc3c(cc1[C@H](C#N)[C@H]1COC(=O)[C@@H]1C2)OCO3	1.52 (≈ 3.59 µM)
COc1cc2c(c(OC)c1OC)-c1cc3c(cc1C(OC(C)=O)[C@H]1COC(=O)[C@@H]1C2)OCO3 (mixture of isomers)	15.7
COc1cc(C[C@H]2C(=O)OCC2Cc2ccc3c(c2)OCO3)cc(OC)c1OC (mixture of isomers)	16.8
COc1cc2c(c(OC)c1OC)-c1cc3c(cc1[C@@H](OC(C)=O)C1COC(=O)[C@H]1C2)OCO3 (mixture of isomers) [STEGANACIN]	< 0.3
COc1cc(C[C@@H]2C(=O)OC[C@H]2Cc2ccc3c(c2)OCO3)cc(OC)c1OC (stereo in doubt; (+))	5.2 (≈ 13 µM)
COc1cc2c(c(OC)c1OC)-c1cc3c(cc1[C@H](OC(C)=O)[C@H]1COC(=O)[C@@H]1C2)OCO3 [(-)-STEGANACIN]	< 0.3
COc1cc([C@@H]2c3cc4c(cc3[C@H](O)[C@H]3COC(=O)[C@H]23)OCO4)cc(OC)c1OC [PODOFILOX]	< 0.3

What follows are compounds tested on Tetrahymena pyriformis (assay: In vitro minimum inhibition concentration to inhibit the regeneration of cilia in Tetrahymena pyriformis W.). Details: not given.
Format: functional

Compound	MIC [µg/mL]
COc1cc2c(c(OC)c1OC)-c1cc3c(cc1C[C@@H]1COC(=O)[C@@H]1C2)OCO3 (stereo in doubt; (+))	>20
COc1cc(C[C@@H]2C(=O)OC[C@H]2Cc2ccc3c(c2)OCO3)cc(OC)c1OC (stereo in doubt; (+))	<20
COc1cc(CC2COCC2Cc2ccc3c(c2)OCO3)cc(OC)c1OC (stereo in doubt; (+)) [CISBURSERAN]	20 (≈ 51.8 µM)

Same assay, conditions: Tetrahymena pyriformis; read-out: MIC

Compound	MIC [µg/mL]
COc1cc2cc(c1Cl)N(C)C(=O)C[C@H](OC(=O)C(C)C)[C@]1(C)O[C@H]1[C@H](C)[C@@H]1C[C@@](O)(NC(=O)O1)[C@H](OC)/C=C/C=C(\C)C2	< 0.5
COc1cc2c(c(OC)c1OC)-c1cc3c(cc1C(OC(C)=O)[C@H]1COC(=O)[C@@H]1C2)OCO3 (mixture of isomers)	> 20
COc1cc(C[C@H]2C(=O)OCC2Cc2ccc3c(c2)OCO3)cc(OC)c1OC (mixture of isomers)	> 20
COc1cc2c(c(OC)c1OC)-c1cc3c(cc1[C@@H](OC(C)=O)C1COC(=O)[C@H]1C2)OCO3 (mixture of isomers) [STEGANACIN]	> 20
COc1cc2c(c(OC)c1OC)-c1cc3c(cc1CC1COC(=O)C1C2)OCO3 (racemic; form 2)	> 20
COc1cc(C2c3cc4c(cc3CC3COC(=O)[C@@H]32)OCO4)cc(OC)c1OC (stereo in doubt)	> 20
COc1cc2c(c(OC)c1OC)-c1cc3c(cc1C[C@H]1COC(=O)[C@H]1C2)OCO3 (stereo in doubt; (+)) [PICROSTEGANE]	> 20
COc1cc2c(c(OC)c1OC)-c1cc3c(cc1C[C@@H]1COC(=O)[C@@H]1C2)OCO3 (stereo in doubt; (-))	20 (≈ 50.2 µM)
COc1cc(C[C@@H]2C(=O)OC[C@H]2Cc2ccc3c(c2)OCO3)cc(OC)c1OC (stereo in doubt; (-))	> 20
COc1cc(CC2COCC2Cc2ccc3c(c2)OCO3)cc(OC)c1OC (stereo in doubt; (-)) [CISBURSERAN]	> 20
COc1cc2c(c(OC)c1OC)-c1cc3c(cc1[C@@H](OC(C)=O)[C@H]1COC(=O)[C@@H]1C2)OCO3 (stereo in doubt; form 2)	> 20
COc1cc2c(c(OC)c1OC)-c1cc3c(cc1C[C@H]1COC(=O)[C@@H]1C2)OCO3 (stereo in doubt; form 2) [STEGANE]	> 20
COc1cc2c(c(OC)c1OC)-c1cc3c(cc1[C@H](OC(C)=O)[C@H]1COC(=O)[C@@H]1C2)OCO3 [(-)-STEGANACIN]	> 20
COc1cc2c(c(OC)c1OC)-c1ccc(OC)c(=O)cc1[C@@H](NC(C)=O)CC2 [COLCHICINE]	> 20
COc1cc([C@@H]2c3cc4c(cc3[C@H](O)[C@H]3COC(=O)[C@H]23)OCO4)cc(OC)c1OC [PODOFILOX]	> 20
